These are literature values, as cited in patent publication US20070212387A1, “COATINGS FOR IMPLANTABLE MEDICAL DEVICES” (Sahajanand Medical Technologies Pvt. Ltd., priority 2006, published 2007).

SMILES strings stand for the structures.

For data set [1] the following is noted: in water.

As to `O=c1c(-c2ccc(O)cc2)coc2cc(O)cc(O)c12` [Genistein, 5,7-dihydroxy-3-(4-hydroxyphenyl)-4H-1-benzopyran-4-one], in data set [1], the water solubility entry is on record as “practically insoluble in water”. Also, the “concentration preventing collagen induced platelet aggregation” value in the data set with platelets is reported as “more than 25 μM”.
In the case of `O=c1c(-c2ccc(O)cc2)coc2cc(O[C@@H]3O[C@H](CO)[C@@H](O)[C@H](O)[C@H]3O)cc(O)c12` [Genistin], the water solubility entry in data set [1] is recorded as “greater water solubility than genistein”.
As for `O=c1c(O)c(-c2ccc(O)c(O)c2)oc2cc(O)cc(O)c12` [Quercetin, 2-(3,4-dihydroxyphenyl)-3,5,7-trihydroxy-4H-1-benzopyran-4-one], the water solubility result in data set [1] is listed as “practically insoluble in water”.
